This passage reports inhibition and IC50 results from US9745299B2, “Substituted tricyclic benzimidazoles as kinase inhibitors” (SELVITA SA, priority 2012, dated 2017).

The structures appear in SMILES notation.

For one test, the target named is T1, CDK2/CyclinE (Homo sapiens, UniProt P24941).
T1 construct: purchased Millipore, Billerica, Mass., USA
Kind of test: ADP-Glo Kinase Assay, CDK2/CyclinE. The test is classed as biochemical. To be noted: read-out: % inhibition at 1 μM CDK2/CyclinE. The procedure:
(§1) Testing of the compounds described in this invention was carried out using the ADP-Glo™ Kinase Assay from Promega Corporation (Madison, Wis., USA).
(§2) The ADP-Glo™ Kinase Assay is a luminescent ADP detection assay to measure kinase activity by quantifying the amount of ADP produced during a kinase reaction. The kinase assay is performed in kinase assay buffer (5 mM MOPS, pH 7.5, 5 mM MgCl2, 0.4 mM EDTA, 1.5 mM DTT). Test samples initially dissolved in DMSO at 10 mM were diluted with the assay buffer to 1000 nM. A 30 μL volume/well of a mixture of substrates containing ATP (final ATP concentration in each kinase assay was equal to its apparent ATP Km).
(§3) The assay was performed in two steps: first, after the kinase reaction, an equal volume of ADP-Glo™ Reagent was added to terminate the kinase reaction and deplete the remaining ATP. Second, the Kinase Detection Reagent was added to simultaneously convert ADP to ATP and allowed the newly synthesized ATP to be measured using a luciferase/luciferin reaction. The luminescent signal generated was proportional to the ADP concentration produced and was correlated with kinase activity.

For another test, the system named is SW480 cells. Kind of test: MTS viability assay, SW480. It counts as cell-based. To be noted: Homo sapiens, SW480, 72 hour incubation, read-out: IC50 [μM] SW-480 ED50. The source says: (§4) The viability of CDK8 expressing cells can be evaluated using a tetrazolium salt reduction cell-based assay. In viable cells this colorimetric assay can measure mitochondrial reduction of a tetrazolium component (MTS) into an […] formazan product. For MTS viability assay, human colon cancer cell lines were used (SW480 and HCT116 cell lines), containing elevated levels of CDK8 protein and highly dependent on its expression for proliferation [see, Firenstein et al. Nature 455 (25):547-551, (2008)]. These cell lines were used to determine the activity of the compounds provided herein to inhibit CDK8 in intact cells. Human tumor cell lines were obtained from ATCC (Rockville Md. USA). In each case, and by methods known to those practiced in the art of cell culture, vaiability was measured after 72 hour incubation with the compounds provided herein using a standard MTS protocol (CellTiter 96® AQueous Non-Radioactive Cell Proliferation Assay).
(§5) Briefly, cells were plated at 10,000-20,000 cells per well in DMEM medium supplemented with 10% fetal bovine serum. The compound plate was set up by aliquoting into column 1 of a 96-well plate, the negative control (DMSO), aliquoting into column 12 the positive control, and titrating the test compound in serial dilutions into columns 2-11. An aliquot from each well of the compound plate was transferred to the plated cells and then incubated at 37° C. in 5% CO2. 20 μL of MTS tetrazolium was added to each well of optical plate and the cells were incubated at 37° C. in 5% CO2 for 2 hours. The absorbance was measured at 490 nm using a microplate reader.
(In general: Tetrazolium assays rely on reduction of a dye to a coloured formazan, in cell work by metabolically active cells.)

A further test relates to HCT116 cells. Put plainly: MTS viability assay, HCT116. It counts as cell-based. The conditions noted are these: Homo sapiens, HCT-116, HCT116, 72 hour incubation, read-out: IC50 [μM] HCT116 ED50.
Description: as §4, §5

The target in a further test is T2, CDK8/CyclinC (Homo sapiens, UniProt P49336).
T2 construct: purchased ProQinase, Freiburg, Germany
Kind of test: ADP-Glo Kinase Assay, CDK8/CyclinC. Also: ATP at apparent Km (53 µM). The test is classed as biochemical. To be noted: read-out: % inhibition at 1 μM CDK8/CyclinC. The procedure:
as §1, §2, §3

For the next test, the target named is T3, CDK9/CyclinT (Homo sapiens, UniProt P50750).
T3 construct: purchased Proqinase, Freiburg, Germany
Kind of test: ADP-Glo Kinase Assay, CDK9/CyclinT. Also: ATP at apparent Km (26 µM). It counts as biochemical. To be noted: read-out: % inhibition at 1 μM CDK9/CyclinT. The procedure:
as §1, §2, §3
For orientation: In ADP-Glo the light output rises with the ADP produced.

T3 sequence (P50750 whole entry): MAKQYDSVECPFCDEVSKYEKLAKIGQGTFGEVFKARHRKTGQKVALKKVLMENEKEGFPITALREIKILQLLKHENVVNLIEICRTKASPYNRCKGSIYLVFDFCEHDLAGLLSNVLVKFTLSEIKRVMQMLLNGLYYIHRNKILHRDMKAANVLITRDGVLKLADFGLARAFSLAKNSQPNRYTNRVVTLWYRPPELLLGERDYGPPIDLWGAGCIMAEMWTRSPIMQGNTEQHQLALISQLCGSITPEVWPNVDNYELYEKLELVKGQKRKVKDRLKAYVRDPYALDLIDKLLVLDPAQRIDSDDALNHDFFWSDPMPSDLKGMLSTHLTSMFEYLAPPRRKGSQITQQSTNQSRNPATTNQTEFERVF
T3 sequence (O60563 whole entry partner): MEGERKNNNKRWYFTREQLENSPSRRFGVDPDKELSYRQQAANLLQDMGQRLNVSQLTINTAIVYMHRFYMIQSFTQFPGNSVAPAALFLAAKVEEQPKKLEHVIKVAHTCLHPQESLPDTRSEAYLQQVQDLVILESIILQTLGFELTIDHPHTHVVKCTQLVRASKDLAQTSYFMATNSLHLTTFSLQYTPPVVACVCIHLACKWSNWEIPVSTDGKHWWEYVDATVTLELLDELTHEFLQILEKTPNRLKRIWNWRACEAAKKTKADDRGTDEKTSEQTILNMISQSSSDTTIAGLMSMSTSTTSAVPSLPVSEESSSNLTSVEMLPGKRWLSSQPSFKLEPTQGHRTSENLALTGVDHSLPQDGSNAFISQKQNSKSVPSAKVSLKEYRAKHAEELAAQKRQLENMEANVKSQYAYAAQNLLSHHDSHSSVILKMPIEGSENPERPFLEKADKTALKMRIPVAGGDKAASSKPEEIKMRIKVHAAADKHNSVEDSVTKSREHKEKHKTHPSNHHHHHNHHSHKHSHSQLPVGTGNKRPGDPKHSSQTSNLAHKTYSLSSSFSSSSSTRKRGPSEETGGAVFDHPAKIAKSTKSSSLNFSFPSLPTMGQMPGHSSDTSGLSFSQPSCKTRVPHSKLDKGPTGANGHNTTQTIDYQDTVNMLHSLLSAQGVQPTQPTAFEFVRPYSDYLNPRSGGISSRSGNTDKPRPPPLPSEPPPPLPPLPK
T2 sequence (P49336 whole entry): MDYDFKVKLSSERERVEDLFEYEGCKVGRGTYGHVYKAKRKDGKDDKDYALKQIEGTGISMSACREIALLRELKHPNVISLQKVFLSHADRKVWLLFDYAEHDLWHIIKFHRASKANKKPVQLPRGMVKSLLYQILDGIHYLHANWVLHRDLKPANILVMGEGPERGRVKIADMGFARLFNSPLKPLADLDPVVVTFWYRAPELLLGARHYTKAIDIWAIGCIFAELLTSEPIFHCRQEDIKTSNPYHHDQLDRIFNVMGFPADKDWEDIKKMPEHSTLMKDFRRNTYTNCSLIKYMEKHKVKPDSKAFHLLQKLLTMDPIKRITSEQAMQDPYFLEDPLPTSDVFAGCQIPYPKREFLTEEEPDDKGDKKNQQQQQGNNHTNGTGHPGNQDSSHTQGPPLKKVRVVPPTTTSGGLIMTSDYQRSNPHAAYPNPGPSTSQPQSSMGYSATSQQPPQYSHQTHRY
T2 sequence (P24863 whole entry partner): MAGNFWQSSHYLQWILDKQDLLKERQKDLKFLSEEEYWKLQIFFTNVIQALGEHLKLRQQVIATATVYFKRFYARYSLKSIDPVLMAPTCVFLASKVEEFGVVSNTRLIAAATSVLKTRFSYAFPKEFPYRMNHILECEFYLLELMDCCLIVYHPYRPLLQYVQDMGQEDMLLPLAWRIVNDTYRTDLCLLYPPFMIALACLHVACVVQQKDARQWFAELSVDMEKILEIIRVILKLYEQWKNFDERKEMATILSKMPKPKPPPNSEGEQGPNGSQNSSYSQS

Regarding `N[C@@H]1CCN(c2nc3c(Br)c(Br)c(Br)c4c3n2CCC4)C1` [Example 1AE], the inhibition at 1 µM at CDK2/CyclinE is 44%; on CDK8/CyclinC, 97%; on CDK9/CyclinT it was 61%. The values for the IC50 in the test with SW480 cells and with HCT116 cells were 1.1 µM and 0.3 µM, respectively.
Turning to `NCC1CN(c2nc3c(Br)c(Br)c(Br)c4c3n2CCC4)CCO1` (stereo not drawn) [Example 1AF], the figures for the IC50 with SW480 cells and in the test on HCT116 cells were 1.8 µM and 1.3 µM, respectively.
As to `NC1CCN(c2nc3c(Br)c(Br)c(Br)c4c3n2CCC4)CC1` [Example 1AG], the inhibition at 1 µM on CDK2/CyclinE came out at 33%; on CDK8/CyclinC, 82%; at CDK9/CyclinT, 42%. The figures for the IC50 in the test with SW480 cells and with HCT116 cells were 0.5 µM and 1.3 µM, respectively.
With `Cc1c(Br)c(Br)c2c3c1nc(N1CC[C@@H](N)C1)n3CCC2` [Example 1AK], the values for the inhibition at 1 µM on CDK2/CyclinE, at CDK8/CyclinC and on CDK9/CyclinT were 0%, 93% and 2%, respectively. Further, the results for the IC50 in the test with SW480 cells and in the test on HCT116 cells were 1.8 µM and 1.7 µM, respectively.
As for `Cc1c(Br)c(Br)c2c3c1nc(N[C@H]1CCNC1)n3CCC2` [Example 1AL], the half-maximal inhibitory concentration (IC50) in the test with SW480 cells was determined as 1.8 µM; in the test on HCT116 cells, 5.3 µM.
As for `COc1c(Br)c2c3c(nc(N4CCNCC4)n3CCC2)c1Br` [Example 1AN], the half-maximal inhibitory concentration (IC50) in the test on HCT116 cells turned out to be 2.4 µM. Also, the values for the inhibition at 1 µM on CDK8/CyclinC and on CDK9/CyclinT were 61% and 10%, respectively.
For the compound `Cc1c(Br)c(Br)c2c3c1nc(N1CCC(N)CC1)n3CCC2` [Example 1AP], the values for the inhibition at 1 µM on CDK8/CyclinC and on CDK9/CyclinT were 65% and 15%, respectively.
On to `CC1CCc2c(Br)c(Br)c(Br)c3nc(N4CCNCC4)n1c23` (stereo not drawn) [Example 1AU], for which the concentration for half-maximal inhibition (IC50) with SW480 cells came to 1.1 µM; in the test on HCT116 cells, 0.2 µM. Moreover, the inhibition at 1 µM is 90% on CDK8/CyclinC and 12% on CDK9/CyclinT.
Consider `Brc1c(Br)c2c3c(nc(N[C@H]4CCCNC4)n3CCC2)c1Br` [Example 1AW], for which the values for the inhibition at 1 µM at CDK2/CyclinE, on CDK8/CyclinC and on CDK9/CyclinT were 0%, 57% and 41%, respectively.
For the compound `Cc1c(Br)c(Br)c2c3c1nc(N1CCCNCC1)n3CCC2` [Example 1AZ], in the test with HCT116 cells, the IC50 was determined as 1.6 µM. In addition, the inhibition at 1 µM on CDK8/CyclinC was found to be 61%.
In the case of `N[C@@H]1CCCC[C@H]1Nc1nc2c(Br)c(Br)c(Br)c3c2n1CCC3` [Example 1B], the results for the IC50 in the test on SW480 cells and with HCT116 cells were 0.5 µM and 1.3 µM, respectively.
Regarding `NCC1CCCN1c1nc2c(Br)c(Br)c(Br)c3c2n1CCC3` (stereo not drawn) [Example 1H], the inhibition at 1 µM on CDK2/CyclinE was 0%; at CDK8/CyclinC, 67%; at CDK9/CyclinT, 8%.
Turning to `NC1CCCN(c2nc3c(Br)c(Br)c(Br)c4c3n2CCC4)C1` (stereo not drawn) [Example 1I], the IC50 in the test with HCT116 cells came out at 1.5 µM.
`Brc1c(Br)c2c3c(nc(NC4CCNCC4)n3CCC2)c1Br` [Example 1J]: in the test on HCT116 cells, the IC50 was 0.5 µM.
Take `Brc1cc2nc(N3CCNCC3)n3c2c(c1Br)CCC3` [Example 1N]: in the test with HCT116 cells, the concentration for half-maximal inhibition (IC50) was 4.3 µM. Also, at CDK8/CyclinC, the inhibition at 1 µM was 49%.
As for `Cc1c(Br)c(Br)c2c3c1nc(NCCN)n3CCC2` [Example 1O], the IC50 in the test with HCT116 cells came to 1.3 µM.
For the compound `Cc1c(Br)c2c3c(nc(NCCN)n3CCC2)c1Br` [Example 1P], the IC50 in the test on HCT116 cells stood at 1.4 µM.
As to `Cc1c(Br)c(Br)c2nc(N3CCNCC3)n3c2c1CCC3` [Example 1S], the IC50 with SW480 cells was determined as 2.5 µM; in the test with HCT116 cells it was 1.7 µM. Further, the figures for the inhibition at 1 µM on CDK8/CyclinC and at CDK9/CyclinT were 54% and 4%, respectively.
`NCCNc1nc2c([N+](=O)[O-])c(Br)c(Br)c3c2n1CCC3` [Example 1U]: in the test on HCT116 cells, the IC50 is 1.6 µM.
On to `O[C@@H]1CCN(c2nc3c(Br)c(Br)c(Br)c4c3n2CCC4)C1` [Example 3AC], for which the inhibition at 1 µM at CDK2/CyclinE is 12%; on CDK8/CyclinC, 94%; at CDK9/CyclinT it was 26%.
For `Cc1c(Br)c(Br)c2c3c1nc(N1CCNC(C)C1)n3CCC2` (stereo not drawn) [Example 3AH] the same measures were 0%, 76% and 0%.
`Cc1c(Br)c(Br)c2c3c1nc(N1CCN(C)CC1)n3CCC2` [Example 3AK]: the values for the inhibition at 1 µM on CDK2/CyclinE, at CDK8/CyclinC and at CDK9/CyclinT were 0%, 75% and -9%, respectively.
`CN(C)C1CCN(c2nc3c(Br)c(Br)c(Br)c4c3n2CCC4)C1` (stereo not drawn) [Example 3AL]: the inhibition at 1 µM at CDK8/CyclinC stood at 76%; on CDK9/CyclinT it was 18%.
For the compound `O[C@H]1CCN(c2nc3c(Br)c(Br)c(Br)c4c3n2CCC4)C1` [Example 3AN], the inhibition at 1 µM on CDK2/CyclinE was determined as 4%; on CDK8/CyclinC, 85%; at CDK9/CyclinT, 21%.
For `OC1CCN(c2nc3c(I)c(Br)c(Br)c4c3n2CCC4)CC1` [Example 3AO] the same measures were 16%, 93% and 22%.
Take `CCN(CC)c1nc2c(C)c(Br)c(Br)c3c2n1CCC3` [Example 3AP]: the values for the inhibition at 1 µM on CDK8/CyclinC and at CDK9/CyclinT were 81% and 9%, respectively.
Turning to `Cc1c(Br)c(Br)c2c3c1nc(N1CCSCC1)n3CCC2` [Example 3AR], the inhibition at 1 µM on CDK8/CyclinC amounted to 75%.
The same measure, in the same setting: then `Cc1c(Br)c(Br)c2c3c1nc(N1CCN[C@H](C)C1)n3CCC2` [Example 3AT], with 82%; and `Cc1c(Br)c(Br)c2c3c1nc(N1CCOCC1)n3CCC2` [Example 3AU], with 76%.
Regarding `Brc1c(Br)c2c3c(nc(Nc4ccncc4)n3CCC2)c1Br` [Example 3B], the inhibition at 1 µM at CDK8/CyclinC came out at 45%.
As to `Brc1c(Br)c2c3c(nc(Nc4ccccc4)n3CCC2)c1Br` [Example 3C], the inhibition at 1 µM at CDK8/CyclinC amounted to 59%.
As to `Brc1c(Br)c2c3c(nc(NC4CCCCC4)n3CCC2)c1Br` [Example 3E], the inhibition at 1 µM amounted to 3% on CDK2/CyclinE, 64% at CDK8/CyclinC and 3% on CDK9/CyclinT.
On to `OCCCNc1nc2c(Br)c(Br)c(Br)c3c2n1CCC3` [Example 3F], for which, on CDK8/CyclinC, the inhibition at 1 µM turned out to be 67%.
The same measure, in the same setting: under `Brc1c(Br)c2c3c(nc(N4CCOCC4)n3CCC2)c1Br` [Example 3G] stands 80%.
For `CN(C)CCNc1nc2c(Br)c(Br)c(Br)c3c2n1CCC3` [Example 3K], in the test with HCT116 cells, the IC50 came to 2.2 µM.
With `Brc1c(Br)c2c3c(nc(NCCCN4CCCC4)n3CCC2)c1Br` [Example 3L], the inhibition at 1 µM was 54% on CDK8/CyclinC and 6% on CDK9/CyclinT.
`CC1(C)CN(c2nc3c(Br)c(Br)c(Br)c4c3n2CCC4)CCN1` [Example 3N]: the inhibition at 1 µM at CDK8/CyclinC is 58%; at CDK9/CyclinT it was 18%.
As to `CC1CCCN1c1nc2c(I)c(Br)c(Br)c3c2n1CCC3` (stereo not drawn) [Example 3S], the inhibition at 1 µM came out at 7% on CDK2/CyclinE, 89% on CDK8/CyclinC and 16% at CDK9/CyclinT.
For `OCC1CCCN(c2nc3c(Br)c(Br)c(Br)c4c3n2CCC4)C1` (stereo not drawn) [Example 3U] the same measures were 9%, 92% and 24%.
Regarding `CCN(CC)c1nc2c(I)c(Br)c(Br)c3c2n1CCC3` [Example 3X], the results for the inhibition at 1 µM on CDK2/CyclinE, at CDK8/CyclinC and on CDK9/CyclinT were 9%, 92% and 41%, respectively.
For the compound `Nc1nc2c(I)c(Br)c(Br)c3c2n1CCC3` [Example 3Y], the results for the inhibition at 1 µM at CDK2/CyclinE, on CDK8/CyclinC and on CDK9/CyclinT were 21%, 69% and 17%, respectively.
For the compound `COC1CCN(c2nc3c(Br)c(Br)c(Br)c4c3n2CCC4)CC1` [Example 4A, 7,8,9-tribromo-2-(4-methoxypiperidin-1-yl)-5,6-dihydro-4H-imidazo[4,5,1-ij]quinoline], the inhibition at 1 µM on CDK2/CyclinE came out at 8%; at CDK8/CyclinC, 75%; on CDK9/CyclinT, 0%.
Turning to `Cc1c(Br)c(Br)c2c3c1nc(C1CCN(C(C)C)CC1)n3CCC2` [Example 7D], the inhibition at 1 µM at CDK8/CyclinC turned out to be 66%.

For orientation: IC50 means the midpoint of a concentration-inhibition curve.
